ChEMBL document CHEMBL3885861, “Open TG-GATES”

Species: Rattus norvegicus
Experiment: Open TG-GATES - Regimen: Single
Assay type: toxicity, organism-based, Sprague-Dawley
Set-up: regimen Single, gender Male, age 6 weeks
Settings: in vivo, po, route gavage; for gamma-GTP / ALP / ALT / AST / BUN / CRE / Ca / Cl / DBIL / GLC / IP / LDH / Na / PL / RALB / TBIL / TC / TG / TP: tissue Plasma; for APTT / Bas / Eos / Fbg / Hb / Ht / Lym / MCH / MCHC / MCV / Mono / Neu / PT / Plat / RBC / Ret / WBC: tissue Blood; for KIDNEY_L / KIDNEY_R / KIDNEY_TOTAL: tissue Kidney; for LIVER: tissue Liver

Compound: CC(=O)N1CCN(c2ccc(OCC3COC(Cn4ccnc4)(c4ccc(Cl)cc4Cl)O3)cc2)CC1 (stereo not given) [KETOCONAZOLE]
- gamma-GTP (0 mg/kg, 24 h, dose level Control): 1.2 IU/L
- TERMINAL_BW (10 mg/kg, 3 h, dose level Low): 205.2 g
- APTT (10 mg/kg, 3 h, dose level Low): 20.8 s
- Bas (10 mg/kg, 3 h, dose level Low): 0%
- Eos (10 mg/kg, 3 h, dose level Low): 0.8%
- Fbg (10 mg/kg, 3 h, dose level Low): 286.4 mg/dL
- Hb (10 mg/kg, 3 h, dose level Low): 12.9 g/dL
- Ht (10 mg/kg, 3 h, dose level Low): 38.9%
- Lym (10 mg/kg, 3 h, dose level Low): 79.2%
- MCH (10 mg/kg, 3 h, dose level Low): 21.8 pg
- MCHC (10 mg/kg, 3 h, dose level Low): 33.1%
- MCV (10 mg/kg, 3 h, dose level Low): 66.1 fL
- Mono (10 mg/kg, 3 h, dose level Low): 2%
- Neu (10 mg/kg, 3 h, dose level Low): 17.2%
- PT (10 mg/kg, 3 h, dose level Low): 16.9 s
- Plat (10 mg/kg, 3 h, dose level Low): 122.3 x10_4/uL
- RBC (10 mg/kg, 3 h, dose level Low): 590.2 x10_4/ul
- Ret (10 mg/kg, 3 h, dose level Low): 8.5%
- WBC (10 mg/kg, 3 h, dose level Low): 81.1 x10_2/uL
- KIDNEY_L (10 mg/kg, 3 h, dose level Low): 1 g
- KIDNEY_R (10 mg/kg, 3 h, dose level Low): 1 g
- KIDNEY_TOTAL (10 mg/kg, 3 h, dose level Low): 2 g
- LIVER (10 mg/kg, 3 h, dose level Low): 9.7 g
- ALP (10 mg/kg, 3 h, dose level Low): 1809.4 IU/L
- ALT (10 mg/kg, 3 h, dose level Low): 44.2 IU/L
- AST (10 mg/kg, 3 h, dose level Low): 74.2 IU/L
- BUN (10 mg/kg, 3 h, dose level Low): 12.6 mg/dL
- CRE (10 mg/kg, 3 h, dose level Low): 0.2 mg/dL
- Ca (10 mg/kg, 3 h, dose level Low): 10.8 mg/dL
- Cl (10 mg/kg, 3 h, dose level Low): 105.4 meq/L
- DBIL (10 mg/kg, 3 h, dose level Low): 0 mg/dL
- GLC (10 mg/kg, 3 h, dose level Low): 183.6 mg/dL
- IP (10 mg/kg, 3 h, dose level Low): 7.7 mg/dL
- LDH (10 mg/kg, 3 h, dose level Low): 214.6 IU/L
- Na (10 mg/kg, 3 h, dose level Low): 140.8 meq/L
- PL (10 mg/kg, 3 h, dose level Low): 138.4 mg/dL
- RALB (10 mg/kg, 3 h, dose level Low): 2.9 g/dL
- TBIL (10 mg/kg, 3 h, dose level Low): 0.014 mg/dL
- TC (10 mg/kg, 3 h, dose level Low): 76.6 mg/dL
- TG (10 mg/kg, 3 h, dose level Low): 69.8 mg/dL
- TP (10 mg/kg, 3 h, dose level Low): 5.3 g/dL
- gamma-GTP (10 mg/kg, 3 h, dose level Low): 1.2 IU/L
- TERMINAL_BW (10 mg/kg, 6 h, dose level Low): 202.4 g
- APTT (10 mg/kg, 6 h, dose level Low): 20.6 s
- Bas (10 mg/kg, 6 h, dose level Low): 0%
- Eos (10 mg/kg, 6 h, dose level Low): 0.6%
- Fbg (10 mg/kg, 6 h, dose level Low): 294 mg/dL
- Hb (10 mg/kg, 6 h, dose level Low): 13.2 g/dL
- Ht (10 mg/kg, 6 h, dose level Low): 39.7%
- Lym (10 mg/kg, 6 h, dose level Low): 78.8%
- MCH (10 mg/kg, 6 h, dose level Low): 21 pg
- MCHC (10 mg/kg, 6 h, dose level Low): 33.2%
- MCV (10 mg/kg, 6 h, dose level Low): 63.2 fL
- Mono (10 mg/kg, 6 h, dose level Low): 1.4%
- Neu (10 mg/kg, 6 h, dose level Low): 18.2%
- PT (10 mg/kg, 6 h, dose level Low): 16.5 s
- Plat (10 mg/kg, 6 h, dose level Low): 134.3 x10_4/uL
- RBC (10 mg/kg, 6 h, dose level Low): 628.6 x10_4/ul
- Ret (10 mg/kg, 6 h, dose level Low): 8.4%
- WBC (10 mg/kg, 6 h, dose level Low): 66.2 x10_2/uL
- KIDNEY_L (10 mg/kg, 6 h, dose level Low): 0.9 g
- KIDNEY_R (10 mg/kg, 6 h, dose level Low): 0.9 g
- KIDNEY_TOTAL (10 mg/kg, 6 h, dose level Low): 1.8 g
- LIVER (10 mg/kg, 6 h, dose level Low): 8.6 g
- ALP (10 mg/kg, 6 h, dose level Low): 1453.2 IU/L
- AST (10 mg/kg, 6 h, dose level Low): 72.2 IU/L
- BUN (10 mg/kg, 6 h, dose level Low): 11 mg/dL
- CRE (10 mg/kg, 6 h, dose level Low): 0.2 mg/dL
- Ca (10 mg/kg, 6 h, dose level Low): 11 mg/dL
- Cl (10 mg/kg, 6 h, dose level Low): 105.8 meq/L
- DBIL (10 mg/kg, 6 h, dose level Low): 0.004 mg/dL
- GLC (10 mg/kg, 6 h, dose level Low): 172.8 mg/dL
- IP (10 mg/kg, 6 h, dose level Low): 9.2 mg/dL
- LDH (10 mg/kg, 6 h, dose level Low): 238.6 IU/L
- Na (10 mg/kg, 6 h, dose level Low): 142.2 meq/L
- PL (10 mg/kg, 6 h, dose level Low): 146.6 mg/dL
- RALB (10 mg/kg, 6 h, dose level Low): 3.1 g/dL
- TBIL (10 mg/kg, 6 h, dose level Low): 0.028 mg/dL
- TC (10 mg/kg, 6 h, dose level Low): 81.4 mg/dL
- TG (10 mg/kg, 6 h, dose level Low): 57 mg/dL
- TP (10 mg/kg, 6 h, dose level Low): 5.5 g/dL
- gamma-GTP (10 mg/kg, 6 h, dose level Low): 1 IU/L
- TERMINAL_BW (10 mg/kg, 9 h, dose level Low): 202 g
- APTT (10 mg/kg, 9 h, dose level Low): 21.2 s
- Bas (10 mg/kg, 9 h, dose level Low): 0%
- Eos (10 mg/kg, 9 h, dose level Low): 0.6%
- Fbg (10 mg/kg, 9 h, dose level Low): 303 mg/dL
- Hb (10 mg/kg, 9 h, dose level Low): 12.8 g/dL
- Ht (10 mg/kg, 9 h, dose level Low): 38.6%
- Lym (10 mg/kg, 9 h, dose level Low): 79.8%
- MCH (10 mg/kg, 9 h, dose level Low): 20.9 pg
- MCHC (10 mg/kg, 9 h, dose level Low): 33.3%
- MCV (10 mg/kg, 9 h, dose level Low): 62.8 fL
- Mono (10 mg/kg, 9 h, dose level Low): 2%
- Neu (10 mg/kg, 9 h, dose level Low): 17%
- PT (10 mg/kg, 9 h, dose level Low): 16.2 s
- Plat (10 mg/kg, 9 h, dose level Low): 120.8 x10_4/uL
- RBC (10 mg/kg, 9 h, dose level Low): 614.6 x10_4/ul
- Ret (10 mg/kg, 9 h, dose level Low): 8.5%
- WBC (10 mg/kg, 9 h, dose level Low): 64.8 x10_2/uL
- KIDNEY_L (10 mg/kg, 9 h, dose level Low): 1 g
- KIDNEY_R (10 mg/kg, 9 h, dose level Low): 1 g
- KIDNEY_TOTAL (10 mg/kg, 9 h, dose level Low): 1.9 g
- LIVER (10 mg/kg, 9 h, dose level Low): 8.9 g
- ALP (10 mg/kg, 9 h, dose level Low): 1290.2 IU/L
- ALT (10 mg/kg, 9 h, dose level Low): 33 IU/L
- AST (10 mg/kg, 9 h, dose level Low): 63.8 IU/L
- BUN (10 mg/kg, 9 h, dose level Low): 11.2 mg/dL
- CRE (10 mg/kg, 9 h, dose level Low): 0.1 mg/dL
- Ca (10 mg/kg, 9 h, dose level Low): 10.6 mg/dL
- Cl (10 mg/kg, 9 h, dose level Low): 104.8 meq/L
- DBIL (10 mg/kg, 9 h, dose level Low): 0 mg/dL
- GLC (10 mg/kg, 9 h, dose level Low): 182.4 mg/dL
- IP (10 mg/kg, 9 h, dose level Low): 9.8 mg/dL
- LDH (10 mg/kg, 9 h, dose level Low): 211.4 IU/L
- Na (10 mg/kg, 9 h, dose level Low): 140.6 meq/L
- PL (10 mg/kg, 9 h, dose level Low): 137.8 mg/dL
- RALB (10 mg/kg, 9 h, dose level Low): 3.1 g/dL
- TBIL (10 mg/kg, 9 h, dose level Low): 0.018 mg/dL
- TC (10 mg/kg, 9 h, dose level Low): 80.2 mg/dL
- TG (10 mg/kg, 9 h, dose level Low): 52.8 mg/dL
- TP (10 mg/kg, 9 h, dose level Low): 5.6 g/dL
- gamma-GTP (10 mg/kg, 9 h, dose level Low): 1.2 IU/L
- TERMINAL_BW (10 mg/kg, 24 h, dose level Low): 212.3 g
- APTT (10 mg/kg, 24 h, dose level Low): 20.9 s
- Bas (10 mg/kg, 24 h, dose level Low): 0%
- Eos (10 mg/kg, 24 h, dose level Low): 1%
- Fbg (10 mg/kg, 24 h, dose level Low): 300 mg/dL
- Hb (10 mg/kg, 24 h, dose level Low): 13 g/dL
- Ht (10 mg/kg, 24 h, dose level Low): 38.5%
- Lym (10 mg/kg, 24 h, dose level Low): 81%
- MCH (10 mg/kg, 24 h, dose level Low): 21.3 pg
- MCV (10 mg/kg, 24 h, dose level Low): 63.4 fL
- Mono (10 mg/kg, 24 h, dose level Low): 1.8%
- Neu (10 mg/kg, 24 h, dose level Low): 15.6%
- PT (10 mg/kg, 24 h, dose level Low): 16.5 s
- Plat (10 mg/kg, 24 h, dose level Low): 129.6 x10_4/uL
- RBC (10 mg/kg, 24 h, dose level Low): 608 x10_4/ul
- Ret (10 mg/kg, 24 h, dose level Low): 7.8%
- WBC (10 mg/kg, 24 h, dose level Low): 74 x10_2/uL
- KIDNEY_L (10 mg/kg, 24 h, dose level Low): 0.9 g
- KIDNEY_R (10 mg/kg, 24 h, dose level Low): 0.9 g
- KIDNEY_TOTAL (10 mg/kg, 24 h, dose level Low): 1.9 g
- LIVER (10 mg/kg, 24 h, dose level Low): 10 g
- ALP (10 mg/kg, 24 h, dose level Low): 1553.2 IU/L
- ALT (10 mg/kg, 24 h, dose level Low): 44.2 IU/L
- AST (10 mg/kg, 24 h, dose level Low): 71 IU/L
- BUN (10 mg/kg, 24 h, dose level Low): 16 mg/dL
- CRE (10 mg/kg, 24 h, dose level Low): 0.2 mg/dL
- Ca (10 mg/kg, 24 h, dose level Low): 10.7 mg/dL
- Cl (10 mg/kg, 24 h, dose level Low): 107.2 meq/L
- DBIL (10 mg/kg, 24 h, dose level Low): 0 mg/dL
- GLC (10 mg/kg, 24 h, dose level Low): 176.6 mg/dL
- IP (10 mg/kg, 24 h, dose level Low): 7.1 mg/dL
- LDH (10 mg/kg, 24 h, dose level Low): 209 IU/L
- Na (10 mg/kg, 24 h, dose level Low): 141.6 meq/L
- PL (10 mg/kg, 24 h, dose level Low): 140 mg/dL
- RALB (10 mg/kg, 24 h, dose level Low): 3.1 g/dL
- TBIL (10 mg/kg, 24 h, dose level Low): 0.006 mg/dL
- TC (10 mg/kg, 24 h, dose level Low): 74 mg/dL
